Entries after “also recorded” stand apart in the source; their conditions may differ.
How the values were obtained:
[1] = system: IgM antibody against SRBC antigen; assay: Enzyme immunoassay of IgM antibody in blood of SRBC-immunized mice; assay type: in vivo
Procedure: Outbred CD1 mice were immunized with 0.1% volume for volume sheep red blood cell antigen suspended in saline. The mice were injected intraperitoneally with 0.5 ml, suspension of approximately 2×10^7 cells.
The mice were injected shortly thereafter with a suspension of an immunomodulator of the invention. The immunomodulator dose was a 0.23 ml of a 1 mg/ml suspension in phosphate buffered saline. The injected dose was 10 mg/kg. The second injection was also intraperitoneal.
The mice were killed five days after injections. Blood samples were taken for analysis of immunoglobulin. The determination was made by enzyme immunoassay using an anti μ-horseradish peroxidase conjugate. The spleen was removed, transferred to a petri dish containing 2 ml of Hank's balanced salt solution and 10 mMolar Hepes buffer (HBSS-HEPES). The spleen was gently crushed by the use of forceps, and the cell suspension was filtered through cotton gauze to eliminate cellular debris. The filtered suspension was brought to volume (5 ml) by the addition of HBSS-HEPES, the cells counted, and the suspension diluted to a final concentration of 5×10^6 cells/ml.

[2] = system: antibody producing cells (SRBC antigen); assay: Plaque forming assay (PFC) in spleen cells of SRBC-immunized mice; assay type: in vivo; conditions: for Plaque Assay, PFC relative to control (100%) / Plaque Assay, PFC per 10^6 spleen cells: mice, 10 mg/kg i.p.; for Plaque Assay, PFC per 10^6 spleen cells: five days after injections; for Immunomodulating activity (in words): plaque-forming assay, Table 1
YAC-1 tumor cells = assay: Natural killer cell activity, 4 hr chromium release assay; conditions: for % Chromium Release ± SD, Effector:Target Ratio 25:1 / % Chromium Release ± SD, Effector:Target Ratio 50:1: 50 mg/kg/day i.p. every other day for 4 injections, splenocytes 24 hr after final treatment, n = 5
Procedure: (§1) Mice were administered a 50 mg/kg dose of the immunomodulators of the invention and were subsequently sacrificed. The spleens were harvested and splenocytes isolated. Immunologic assays were conducted on those splenocytes that were taken 24 hours after final treatment. These cells were subjected to tests to determine macrophage and natural killer (NK) cell function.
Three week-old C57 BL/6 mice were procured and quarantined for 24 to 48 hours prior to treatment. The five oligopeptides described in tables 2, 3 and 4 were admixed with a 0.4% water solution of carboxymethylcellulose. The solutions were stored at 4° C. until use. Ribavarin (1-β-D-ribofuranosyl-1,2,4-triazole-carboxamide) was used in each subsequent experiment as a control.
(§2) Animals were treated with a 50 mg/kg/day dosage of one of the tested compound and were killed 24 hr after the final treatment and their spleens removed. […] Red blood cells were removed by haemolytic lysis.
Natural killer (NK) activity of murine cells was determined by testing splenic cells for their ability to lyse YAC-1 tumor cells in a conventional 4 hr chromium release assay as an indicator of NK was expressed as: % chromium release=(experimental counts per minute (cpm)-background cpm)/(maximum cpm-background cpm)

[3] = system: Total T and B cells in splenocytes; assay: Splenic T and B cell enumeration by FACS; assay type: in vivo, C57BL/6 mice; conditions: for % Cells/Spleen ± SD, B Cells / % Cells/Spleen ± SD, T Cells: 50 mg/kg/day i.p. every other day for 4 injections, n = 5; for % Cells/Spleen ± SD, B Cells: anti-Ly5; for % Cells/Spleen ± SD, T Cells: anti-Thy 1.2; for Effect on B cell counts (in words) / Effect on T cell counts (in words): 50 mg/kg, splenocytes, Hydrochloride
Excerpt: Splenic cells were enumerated with the following assay. Dispersed splenocytes were reacted with fluorescein isothiocyanate-labelled murine monoclonal antibody anti-Ly5 for B cell enumeration and phycoerythrin-labelled monoclonal antibody anti-Thy 1.2 for T cell counts. The labelled cells were then enumerated with a fluorescence-activated cell sorter (FACS) (EPICS-C, Coulter Corp., Hialeah, Fla.).

[4] = system: Macrophage function (IL-1 activity in splenocytes); assay: Macrophage function, IL-1 activity in splenocytes by [3H]thymidine uptake in PHA-stimulated thymocytes; conditions: for Mean CPM of Treated Thymocytes ± SD: 50 mg/kg/day i.p. every other day for 4 injections, splenocytes 24 hr after final treatment, n = 5; for Effect on macrophage function (in words): 50 mg/kg, splenocytes 24 hours after final treatment, Hydrochloride
Procedure: as §1
Ribavarin (1-β-D-ribofuranosyl-1,2,4-triazole-carboxamide) was used in each subsequent experiment as a control.
as §2
Macrophage function was assessed by an interleukin-1 (IL-1) assay that utilizes responsiveness of mouse thymocytes to phytohemagglutin (PHA) which is dependent on IL-1 for its reactivity.
The cells were incubated 72 hr at 37° C. During the last 4 hr of the incubation, the cells were pulsed with [^3 H] thymidine (1 μCi/well). The cells were then harvested and [H^3 ] thymidine incorporation was determined using a direct counter.

[5] = system: murinecytomegalovirus (MCMV) (Smith strain); assay: Mortality in MCMV-infected mice; assay type: in vivo, Swiss Webster female mice; conditions: MCMV-infected mice
[6] = system: murinecytomegalovirus (MCMV) (Smith strain); assay: MCMV titers in tissues; assay type: in vivo, Swiss Webster female mice; conditions: 25 mg/kg
[7] = Toxicity controls: mortality and weight gain in uninfected mice; assay type: in vivo; conditions: mouse, in vivo, 25 mg/kg
Procedure: Groups of 5 uninfected mice were treated the same way and at the same times as described above. These animal were checked daily for survival. Their weigths were taken before the first treatment and 24 hours after the last treatment to determine drug effect on weight gain.

[8] = 25 mg/kg i.p. once daily for 5 days from 24 hours after virus, 21 days

| Molecule | Enzyme Immunoassay, IgM antibody relative to control (100%) ([1]; Experiment 5, 10 mg/kg i.p.) [%] | % Chromium Release ± SD, Effector:Target Ratio 25:1 (YAC-1 tumor cells) [%] | % Chromium Release ± SD, Effector:Target Ratio 50:1 (YAC-1 tumor cells) [%] | % Cells/Spleen ± SD, B Cells [3] [%] | % Cells/Spleen ± SD, T Cells [3] [%] | Effect on B cell counts (in words) [3] | Effect on T cell counts (in words) [3] | Mean CPM of Treated Thymocytes ± SD [4] [CPM] | Effect on macrophage function (in words) [4] | Plaque Assay, PFC relative to control (100%) ([2]; Experiment 5) [%] | Plaque Assay, PFC per 10^6 spleen cells ([2]; Experiment 5) [PFC per 10^6 spleen cells] | Immunomodulating activity (in words) [2] | Enzyme Immunoassay, IgM antibody relative to control (100%) ([1]; Experiment 8, 10 mg/kg i.p.) [%] | Plaque Assay, PFC relative to control (100%) ([2]; Experiment 8) [%] | Plaque Assay, PFC per 10^6 spleen cells ([2]; Experiment 8) [PFC per 10^6 spleen cells] | further results |
| --- | --- | --- | --- | --- | --- | --- | --- | --- | --- | --- | --- | --- | --- | --- | --- | --- |
| CCCCCCCCCCCCCCCCCCN[C@H](C(=O)N[C@H](CCC(N)=O)C(=O)O)C(C)C.Cl [BCH 1317, Octadecyl L-Valyl D-Glutamine Hydrochloride] | – | – | – | – | – | – | – | – | – | – | – | – | – | – | – | Enzyme Immunoassay, IgM antibody relative to control (100%) ([1]; Experiment 9, 10 mg/kg i.p.): 189%; Plaque Assay, PFC relative to control (100%) ([2]; Experiment 9): 149%; Plaque Assay, PFC per 10^6 spleen cells ([2]; Experiment 9): 750 ± 191 PFC per 10^6 spleen cells |
| CCCCCCCCCCCCCCCCCCOC(=O)CC[C@@H](NC(=O)[C@H](C)N)C(=O)O.Cl [BCH-524, γ-Octadecyl L-Alanyl D-Glutamate Hydrochloride] | 80 | 9.8 ± 3.6 | 14.3 ± 1.9 | 33 ± 10.2 | 35 ± 9.6 | suppressive; also recorded: suppressed | suppressive; also recorded: suppressed | 5491 ± 1269 | somewhat stimulatory; also recorded: macrophage stimulation | 58 | 245 ± 90 | immunosuppressors | – | – | – | Effect on natural killer (NK) cell activity (in words) (YAC-1 tumor cells; 50 mg/kg, splenocytes 24 hours after final treatment, Hydrochloride): marginally suppressive; also recorded: marginal natural killer cell suppression |
| Nc1nc(O)c2ncn(COC(CO)CO)c2n1 [Ganciclovir, reference compound] | – | – | – | – | – | – | – | – | – | – | – | – | – | – | – | Survivors (%) [5, 8]: 100%; Survivors/total [5, 8]: 10/10; Mean day to death ([5]; 25 mg/kg i.p. once daily for 5 days, of mice that died on or before day 21): > 21 days; Virus titer in Liver ([6]; Day 3): 2.6±0.2 Log10 CCID50/qram; Virus titer in Lung ([6]; Day 3): < 2.5±0.0 Log10 CCID50/qram; Virus titer in salivary gland ([6]; Day 3): 3.1±0.6 Log10 CCID50/qram; Virus titer in spleen ([6]; Day 3): 5.7±0.3 Log10 CCID50/qram; Virus titer in Liver ([6]; Day 6): 3.3±0.8 Log10 CCID50/qram; Virus titer in Lung ([6]; Day 6): 3.5±0.6 Log10 CCID50/qram; Virus titer in salivary gland ([6]; Day 6): 3.3±0.8 Log10 CCID50/qram; Virus titer in spleen ([6]; Day 6): 3.6±0.9 Log10 CCID50/qram; Survivors (%) [7]: 100%; Survivors/total [7]: 5/5 |
| CCCCCCCCCCCCCCCCCCOC(=O)[C@@H](CCC(=O)O)NC(=O)[C@H](C)N.Cl [BCH-526, α-Octadecyl L-Alanyl D-Glutamate Hydrochloride] | 82 | 12.8 ± 2.1 | 17.2 ± 3.3 | 43 ± 1.4 | 40 ± 2.4 | increase % B cells; also recorded: increased B cell counts | suppressing T cells; also recorded: suppressed T cell counts | 3413 ± 206 | moderately inhibitory; also recorded: moderate macrophage suppression | 77 | 325 ± 300 | immunosuppressors | – | – | – | – |
| Octadecyl L-Alanyl D-Isoglutamyl γ-Glycine Hydrochloride [BCH-1315] | – | – | – | – | – | – | – | – | – | – | – | immunostimulants | 202 | 204 | 1012 ± 207 | – |
| CCCCCCCCCCCCCCCCCCNC(=O)CC[C@@H](NC(=O)[C@H](C)N)C(N)=O.Cl [BCH-1316, L-Alanyl D-Isoglutamyl Octadecylamine Hydrochloride] | – | – | – | – | – | – | – | – | – | – | – | immunostimulants | 186 | 153 | 759 ± 252 | – |

From patent US5688771A, “Lipophilic oligopeptides with immunomodulating activity” (priority 1993, dated 1997)
